Each structure is given as a SMILES string.

This assay deals with T1, LPA1R (Homo sapiens, UniProt Q92633).
T1 construct: host or cells: LPA1R expressing cells (Millipore, GPCR Profiler)
The assay can be described thus: Calcium flux assay: inhibition of LPA-stimulated Ca2+ flux (FLIPR, antagonist mode). Format: cell-based. To be noted: LPA1R Ca2+ flux functional assay, LPA1R expressing cells challenged with EC80 of LPA, read-out: LPA1 R Antagonist Activity. The procedure:
Inhibition of LPA-stimulated Ca^2+ flux was used to assess compound potency using FLIPR technology in a 96 well plate format. The assay buffer used was a modified Hanks Balanced Salt Solution (HBSS) where HBSS was supplemented to contain 20 mM HEPES and 2.5 mM Probenecid at pH7.4 (Millipore, GPCR Profiler®). LPA1R expressing cells (Millipore) were plated and prepared 24 hours prior to assay of test articles. Ca^2+ ion flux was assessed from fluorescence of a Fluo-based No Wash Ca^2+ dye. Antagonist data are generated from plates with LPA concentrations sufficient to generate 80% efficacy [EC80]. Percentage inhibition was calculated from a reduction of efficacy according to concentration of compounds of Formula I-VI. For dose responses the inhibition data was used to calculate compound IC50.
The agonist assay was conducted on a FLIPR^TETRA instrument where the test compound(s), vehicle controls, and reference agonist were added to the assay plate after a fluorescence baseline was established. The agonist assay was a total of 180 seconds and was used to assess each compound's ability to activate each GPCR assayed. Upon completion of the agonist assay, the assay plate was removed from the FLIPR^TETRA and incubated at 25° C. for seven (7) minutes. After the incubation period, the assay plate was placed back in the FLIPR^TETRA and the antagonist assay was initiated.
Antagonist Assay: Using EC80 potency values determined during the agonist assay, all pre-incubated sample compound wells were challenged with EC80 concentration of reference agonist after establishment of a fluorescence baseline. The antagonist assay was conducted using the same assay plate that was used for the agonist assay. The antagonist assay was conducted on a FLIPR^TETRA instrument where 9 vehicle controls and EC80 concentration of reference agonist were added to appropriate wells. The antagonist assay was a total of 180 seconds and was used to assess each compound's ability to inhibit each GPCR assayed.
Data Processing: All assay plate data were subjected to appropriate baseline corrections. After baseline corrections were applied, maximum fluorescence values were exported and data processed to calculate percentage activation (relative to Emax reference agonist and vehicle control values), percentage inhibition (relative to EC80 and vehicle control values), and additional statistical values (i.e. Z′, percentage variation between replicate data values) to assess the quality of each plate. Where assay plate data were rejected, additional experiments were conducted. All dose response curves were generated using GraphPad Prism. The curves were fit by utilizing “Sigmoidal Dose Response (Variable Slope)” equation where the bottom parameter was fixed to “0.” Where appropriate, the top parameter was fixed to “100” to better predict potency values when a full curve was not generated by the concentrations assayed.

T1 sequence (Q92633 whole entry): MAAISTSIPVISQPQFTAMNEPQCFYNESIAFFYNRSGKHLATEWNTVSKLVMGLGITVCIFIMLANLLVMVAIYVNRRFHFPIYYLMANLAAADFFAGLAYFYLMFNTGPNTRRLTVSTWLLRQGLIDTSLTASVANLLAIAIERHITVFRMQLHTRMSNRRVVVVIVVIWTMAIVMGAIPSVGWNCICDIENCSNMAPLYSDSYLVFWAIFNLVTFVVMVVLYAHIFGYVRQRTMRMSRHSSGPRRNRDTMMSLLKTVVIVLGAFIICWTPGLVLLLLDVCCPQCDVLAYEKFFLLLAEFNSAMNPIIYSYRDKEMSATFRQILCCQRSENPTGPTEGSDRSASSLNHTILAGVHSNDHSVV

`C[C@@H](OC(=O)Nc1c(Cl)cnn1-c1ccc(-c2ccc(C3(C(=O)NC#N)CC3)cc2)cc1)c1ccccc1` [Compound 24, (R)-1-phenylethyl (4-chloro-1-(4′-(1-(cyanocarbamoyl)cyclopropyl)-[1,1′-biphenyl]-4-yl)-1H-pyrazol-5-yl)carbamate]: the IC50 lay in the range of 1 to 50 µM.

Consider `C[C@@H](OC(=O)Nc1c(Cl)cnn1-c1ccc(-c2ccc(C3(C(=O)NC#N)CC3)cc2)cc1)c1ccccc1Cl` [Compound 25, (R)-1-(2-chlorophenyl)ethyl (4-chloro-1-(4′-(1-(cyanocarbamoyl)cyclopropyl)-[1,1′-biphenyl]-4-yl)-1H-pyrazol-5-yl)carbamate], for which the IC50 lay in the range of 1 to 50 µM.

Take `C[C@@H](OC(=O)Nc1c(F)cnn1-c1ccc(-c2ccc(C3(C(=O)NC#N)CC3)cc2F)cc1)c1ccccc1Cl` [Compound 26, (R)-1-(2-chlorophenyl)ethyl (1-(4′-(1-(cyanocarbamoyl)cyclopropyl)-2′-fluoro-[1,1′-biphenyl]-4-yl)-4-fluoro-1H-pyrazol-5-yl)carbamate]: the IC50 is below 0.3 µM.

Take `C[C@@H](OC(=O)Nc1c(C#N)cnn1-c1ccc(-c2ccc(C(C)(C)C(=O)O)cc2)cc1)c1ccccc1Cl` [Compound 27, (R)-2-(4′-(5-(((1-(2-chlorophenyl)ethoxy)carbonyl)amino)-4-cyano-1H-pyrazol-1-yl)-[1,1′-biphenyl]-4-yl)-2-methylpropanoic acid]: the IC50 was below 0.3 µM.

Turning to `C[C@@H](OC(=O)Nc1c(C#N)cnn1-c1ccc(-c2ccc(C(C)(C)C(=O)O)cc2)cc1)c1ccccc1` [Compound 28, (R)-2-(4′-(4-cyano-5-(((1-phenylethoxy)carbonyl)amino)-1H-pyrazol-1-yl)-[1,1′-biphenyl]-4-yl)-2-methylpropanoic acid], the IC50 was below 0.3 µM.

The values above are taken from patent US20230286928A1, “HETEROCYCLIC COMPOUNDS USEFUL IN THE TREATMENT OF DISEASE” (Epigen Biosciences, Inc., priority 2018, published 2023).
